{"source": "patent US7514555B2", "about": "“Compounds for the treatment of metabolic disorders” (Wellstat Therapeutics Corporation, priority 2003, dated 2009)", "key": {"[1]": {"tested_on": "db/db mice", "assay": "Antidiabetic effects in db/db mice, daily oral dosing for 4 weeks", "format": "in vivo", "settings": "for effect on blood glucose (in words) / effect on free fatty acids (in words) / effect on serum triglycerides (in words): 4 weeks of daily oral dosing; for effect on blood glucose (in words): versus vehicle; for effect on free fatty acids (in words) / effect on serum triglycerides (in words): versus vehicle-treated db/db mice; for Glucose ± SEM: serum glucose; for Glucose ± SEM / Free Fatty Acids ± SEM / Triglycerides ± SEM: 100 mg/kg daily oral, 4 weeks; for Free Fatty Acids ± SEM / Triglycerides ± SEM: serum", "from_the_text": "(§1) Db/db mice have a defect in leptin signaling, leading to hyperphagia, obesity and diabetes. Moreover, unlike ob/ob mice on a C57BL/6J background, db/db mice on a C57BLKS background undergo failure of their insulin-producing pancreatic islet cells, resulting in progression from hyperinsulinemia (associated with peripheral insulin resistance) to hypoinsulinemic diabetes.\n(§2) Male obese (db/db homozygote) C57BL/Ksola mice approximately 8 weeks of age, were obtained from Jackson Labs (Bar Harbor, Me.) and randomly assigned into groups of 5-7 animals such that the body weights (40-45 g) and serum glucose levels (≧300 mg/dl in fed state) were similar between groups; male lean (db/+heterozygote) mice served as cohort controls. A minimum of 7 days was allowed for adaptation after arrival. All animals were maintained under controlled temperature (23° C.), relative humidity (50±5%) and light (7:00-19:00), and allowed free access to standard chow (Formulab Diet 5008, Quality Lab Products, Elkridge, Md.) and water.\nTreatment cohorts were given daily oral doses of vehicle, Compound BI (100 mg/kg), or Compound CR (100 mg/kg) for 4 weeks. At the end of the treatment period 100 μl of venous blood was withdrawn in a heparinized capillary tube from the retro-orbital sinus for serum chemistry analysis."}, "[2]": {"tested_on": "db/db mice", "assay": "Antidiabetic effects in db/db mice, daily oral dosing for 2 weeks", "format": "in vivo", "settings": "for Glucose / Glucose (% of Control) / Free Fatty Acids ± SEM / Glucose ± SEM / Triglycerides ± SEM: 100 mg/kg daily oral; for Glucose / Glucose (% of Control): 2 weeks; for Glucose (% of Control): relative to vehicle control; for effect on blood glucose (in words) / effect on free fatty acids (in words) / effect on triglycerides (in words): 2 weeks of daily oral dosing; for Free Fatty Acids ± SEM / Glucose ± SEM / Triglycerides ± SEM: plasma serum, 2 weeks (Table IV)", "from_the_text": "as §1, §2\n[…] At the end of the treatment period 100 μl of venous blood was withdrawn in a heparinized capillary tube from the retro-orbital sinus for serum chemistry analysis.\nThe same procedure as Example 2 was followed."}}, "note": "“Also recorded” adds a separate entry of the source.", "data": [{"compound": "Cc1cccc(C)c1COc1cccc([C@H](O)CCC(=O)O)c1", "note": "[Compound CR, 4-(3-(2,6-Dimethylbenzyloxy)-phenyl)-4(R)-hydroxybutanoic acid]", "values": [{"measurement": "effect on blood glucose (in words)", "setting": "[1]", "result": "significant reduction"}, {"measurement": "effect on free fatty acids (in words)", "setting": "[1]", "result": "reduced; also recorded: did result in a decrease"}, {"measurement": "effect on serum triglycerides (in words)", "setting": "[1]", "result": "reduced"}, {"measurement": "Glucose ± SEM", "setting": "[1]", "result": "235 ± 49", "unit": "mg/dL"}, {"measurement": "Free Fatty Acids ± SEM", "setting": "[1]", "result": "1634 ± 78", "unit": "µM"}, {"measurement": "Triglycerides ± SEM", "setting": "[1]", "result": "182 ± 29", "unit": "mg/dL"}, {"measurement": "Glucose", "setting": "[2]", "result": "263.2 ± 59.0", "unit": "mg/dL"}, {"measurement": "Glucose (% of Control)", "setting": "[2]", "result": "35 ± 8 % of Control"}, {"measurement": "effect on blood glucose (in words)", "setting": "[2]", "result": "significant reduction"}, {"measurement": "effect on free fatty acids (in words)", "setting": "[2]", "result": "not CR caused a decrease"}, {"measurement": "effect on triglycerides (in words)", "setting": "[2]", "result": "markedly reduce"}, {"measurement": "Free Fatty Acids ± SEM", "setting": "[2]", "result": "1326.3 ± 124.2"}, {"measurement": "Glucose ± SEM", "setting": "[2]", "result": "263.2 ± 59.0"}, {"measurement": "Triglycerides ± SEM", "setting": "[2]", "result": "86.3 ± 9.4"}]}, {"compound": "Cc1cccc(C)c1COc1cccc(C(=O)CCC(=O)O)c1", "note": "[Compound BI, 4-(3-(2,6-Dimethylbenzyloxy)-phenyl)-4-oxobutanoic acid, reference compound]", "values": [{"measurement": "effect on blood glucose (in words)", "setting": "[1]", "result": "significant reduction"}, {"measurement": "effect on free fatty acids (in words)", "setting": "[1]", "result": "reduced"}, {"measurement": "effect on serum triglycerides (in words)", "setting": "[1]", "result": "reduced"}, {"measurement": "Glucose ± SEM", "setting": "[1]", "result": "189 ± 25", "unit": "mg/dL"}, {"measurement": "Free Fatty Acids ± SEM", "setting": "[1]", "result": "1387 ± 101", "unit": "µM"}, {"measurement": "Triglycerides ± SEM", "setting": "[1]", "result": "125 ± 11", "unit": "mg/dL"}, {"measurement": "Glucose", "setting": "[2]", "result": "317.4 ± 48.0", "unit": "mg/dL"}, {"measurement": "Glucose (% of Control)", "setting": "[2]", "result": "42 ± 6 % of Control"}, {"measurement": "effect on blood glucose (in words)", "setting": "[2]", "result": "significant reduction"}, {"measurement": "effect on free fatty acids (in words)", "setting": "[2]", "result": "caused a decrease"}, {"measurement": "effect on triglycerides (in words)", "setting": "[2]", "result": "markedly reduce"}, {"measurement": "Free Fatty Acids ± SEM", "setting": "[2]", "result": "1070.3 ± 96.4"}, {"measurement": "Glucose ± SEM", "setting": "[2]", "result": "317.4 ± 48.0"}, {"measurement": "Triglycerides ± SEM", "setting": "[2]", "result": "136.3 ± 18.1"}]}]}
